We go through two molecules from PMC8714961, “Involvement of P-gp on Reversing Multidrug Resistance Effects of 23-Hydroxybetulinic Acid on Chemotherapeutic Agents” (Frontiers in Pharmacology, 2021).

Data set [1] deals with P-gp (Homo sapiens, UniProt P08183). Nature of the data set: MDCK-MDR1 transport study, inhibition of VCR transport. Particulars: dog, MDCK-MDR1. Here is the method: Briefly, MDCK-MDR1 cells (1×10^5/Well) were seeded onto […] pore-size transwell inserts (Millipore, MA, United States) in 24-well plates.
Sequence of P-gp (P08183 whole entry): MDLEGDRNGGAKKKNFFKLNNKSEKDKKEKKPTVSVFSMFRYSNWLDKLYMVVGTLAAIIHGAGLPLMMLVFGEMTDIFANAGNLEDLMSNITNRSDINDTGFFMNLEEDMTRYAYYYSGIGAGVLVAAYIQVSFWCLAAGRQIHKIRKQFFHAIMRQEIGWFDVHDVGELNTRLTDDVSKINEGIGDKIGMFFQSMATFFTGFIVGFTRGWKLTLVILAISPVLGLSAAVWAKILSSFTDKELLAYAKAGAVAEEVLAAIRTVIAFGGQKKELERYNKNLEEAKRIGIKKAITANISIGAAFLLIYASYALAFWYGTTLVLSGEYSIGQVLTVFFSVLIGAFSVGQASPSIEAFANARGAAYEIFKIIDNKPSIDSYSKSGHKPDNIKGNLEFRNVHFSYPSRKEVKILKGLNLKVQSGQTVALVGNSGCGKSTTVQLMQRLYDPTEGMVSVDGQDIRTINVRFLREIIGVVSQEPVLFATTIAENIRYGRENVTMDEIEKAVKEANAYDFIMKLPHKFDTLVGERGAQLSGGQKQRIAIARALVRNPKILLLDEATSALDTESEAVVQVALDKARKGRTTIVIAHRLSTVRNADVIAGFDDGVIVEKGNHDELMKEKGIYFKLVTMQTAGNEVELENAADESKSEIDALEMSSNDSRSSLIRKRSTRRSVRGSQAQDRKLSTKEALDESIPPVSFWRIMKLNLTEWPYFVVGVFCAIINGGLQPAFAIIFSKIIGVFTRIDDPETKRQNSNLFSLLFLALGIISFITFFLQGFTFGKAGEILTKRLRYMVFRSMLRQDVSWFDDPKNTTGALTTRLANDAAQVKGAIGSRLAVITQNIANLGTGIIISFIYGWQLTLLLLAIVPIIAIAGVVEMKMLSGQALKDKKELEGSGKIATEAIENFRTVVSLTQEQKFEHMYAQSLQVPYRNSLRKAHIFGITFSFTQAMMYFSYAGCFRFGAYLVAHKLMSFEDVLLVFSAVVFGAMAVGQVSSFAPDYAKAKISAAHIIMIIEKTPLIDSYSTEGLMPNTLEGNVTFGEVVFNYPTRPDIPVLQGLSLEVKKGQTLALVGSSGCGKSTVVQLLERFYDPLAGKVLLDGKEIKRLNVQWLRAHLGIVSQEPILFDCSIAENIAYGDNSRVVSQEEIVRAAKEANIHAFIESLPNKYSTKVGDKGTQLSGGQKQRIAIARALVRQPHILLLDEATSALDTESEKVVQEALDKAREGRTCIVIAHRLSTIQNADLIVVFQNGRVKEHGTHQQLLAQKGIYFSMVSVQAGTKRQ
The cells were rinsed with warmed Hank’s balanced salt solution (HBSS), and the inserts were incubated for 20 min at 37°C. […] Aliquots (50 µl) were taken from the receiver compartment at intervals of 30, 60, 90, and 120 min and replaced with fresh buffer. In the study, verapamil (VER), known P-gp inhibitor, was selected as positive control.
The apparent permeability values (Papp) were evaluated in all experiments according to the following equation: Papp=dQ/dt/AC0 (1) where A means the insert area and C0 represents the initial concentration. dQ/dt represents the slope of the cumulative content transported during the time course of the period studied.

Data set [2] deals with MCF-7/ADR cells. Nature of the data set: Hoechst assay (apoptosis). Particulars: 3 µM alone, vs control group. The class given is cell-based, human. The procedure:
MCF-7/ADR cells were collected and cultured at the density of 2.0 × 10^5/well in 24-well plates. […] The cells were dyed with Hoechst 33,342 (Beyotime, Shanghai, China) in the dark at 37°C for 30 min after washing with phosphate buffered saline (PBS). The morphological changes of the nucleus were evaluated by a fluorescence microscope.

With `CC[C@]1(O)C[C@H]2CN(CCc3c([nH]c4ccccc34)[C@@](C(=O)OC)(c3cc4c(cc3OC)N(C=O)[C@H]3[C@@](O)(C(=O)OC)[C@H](OC(C)=O)[C@]5(CC)C=CCN6CC[C@]43[C@@H]65)C2)C1` [VCR, Vincristine, reference compound], in data set [1], the Papp A→B at 120 min was 0.35 ± 0.17 ×10⁻⁶ cm/s, the apparent permeability from basolateral to apical (Papp B→A) at 120 min came to 3.86 ± 0.71 ×10⁻⁶ cm/s and the efflux ratio at 120 min stood at 10.9.

As to `COc1cccc2c1C(=O)c1c(O)c3c(c(O)c1C2=O)C[C@@](O)(C(=O)CO)C[C@@H]3O[C@H]1C[C@H](N)[C@H](O)[C@H](C)O1` [ADR, Adriamycin, reference compound], the “Number of apoptosis cells, single agent” value in data set [2] is on record as “not obviously different with the control group”.
